Earlier results, collected in PMC3433420 (PLoS ONE, 2012).
Where two headings read alike, the source gives them in different places.

Key:
[1] = biological target: SH2 and PTB domains; details: most recent PM interactions, cited from earlier work
Excerpt: Supplement pone.0044471.s022.xlsx, sheet "Most recent PM interactions" | column: Kd || Supplement pone.0044471.s022.xlsx, sheet "All original PM interactions" | column: Kd

[2] = biological target: GRB7 SH2 domain (Homo sapiens, UniProt Q14451); design: 6X His; thioredoxin; made in house; host or cells: E. coli BL21(DE3)pLysS; details: Protein GRB7, most recent PM interactions, cited from earlier work
Sequence of GRB7 SH2 domain (Q14451 431-527 limits assumed): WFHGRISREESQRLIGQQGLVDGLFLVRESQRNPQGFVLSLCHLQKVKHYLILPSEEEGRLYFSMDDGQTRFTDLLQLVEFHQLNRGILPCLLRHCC

**Q.** Which Kd ([1]; Protein ABL2, ref Jones et al. 2006 / Kaushansky et al. Chem and Biol 2008) does the source give for AFSPAFDNLpYYWDQDPPE [ErbB2 1221] here?
**A.** Its Kd is 500 nM.

**Q.** What about the Kd ([1]; Protein BLK, ref Jones et al. 2006 / Kaushansky et al. Chem and Biol 2008) of the same substance?
**A.** Its Kd is 630 nM.

**Q.** And the Kd ([1]; Protein BLNK, ref Jones et al. 2006 / Kaushansky et al. Chem and Biol 2008)?
**A.** Its Kd is 1560 nM.

**Q.** And the Kd ([1]; Protein FGR, ref Jones et al. 2006 / Kaushansky et al. Chem and Biol 2008)?
**A.** The Kd was 420 nM.

**Q.** What about the Kd ([1]; Protein GRB10, ref Jones et al. 2006 / Kaushansky et al. Chem and Biol 2008) of the same substance?
**A.** Its Kd is 120 nM.

**Q.** And the Kd ([1]; Protein GRB14, ref Jones et al. 2006 / Kaushansky et al. Chem and Biol 2008)?
**A.** Its Kd is 1400 nM.

**Q.** What about the Kd ([1]; Protein ITK, ref Jones et al. 2006 / Kaushansky et al. Chem and Biol 2008) of the same substance?
**A.** The Kd was 780 nM.

**Q.** What about the Kd ([1]; Protein LYN, ref Jones et al. 2006 / Kaushansky et al. Chem and Biol 2008) of the same substance?
**A.** The Kd was 930 nM.

**Q.** What about the Kd ([1]; Protein PIK3R1-NC, ref Jones et al. 2006 / Kaushansky et al. Chem and Biol 2008) of the same substance?
**A.** Its Kd is 1160 nM.

**Q.** And the Kd ([1]; Protein PIK3R2-N, ref Jones et al. 2006 / Kaushansky et al. Chem and Biol 2008)?
**A.** Its Kd is 950 nM.

**Q.** What about the Kd ([1]; Protein PIK3R3-C, ref Jones et al. 2006 / Kaushansky et al. Chem and Biol 2008) of the same substance?
**A.** The Kd was 1910 nM.

**Q.** What about the Kd ([1]; Protein PLCG1-N, ref Jones et al. 2006 / Kaushansky et al. Chem and Biol 2008) of the same substance?
**A.** The Kd was 1930 nM.

**Q.** And the Kd ([1]; Protein PLCG1-NC, ref Jones et al. 2006 / Kaushansky et al. Chem and Biol 2008)?
**A.** The Kd was 1960 nM.

**Q.** And the Kd ([1]; Protein PLCG2-N, ref Jones et al. 2006 / Kaushansky et al. Chem and Biol 2008)?
**A.** Its Kd is 170 nM.

**Q.** And the Kd ([1]; Protein RASA1-N, ref Jones et al. 2006 / Kaushansky et al. Chem and Biol 2008)?
**A.** Its Kd is 190 nM.

**Q.** And the Kd ([1]; Protein RASA1-NC, ref Jones et al. 2006 / Kaushansky et al. Chem and Biol 2008)?
**A.** Its Kd is 510 nM.

**Q.** And the Kd ([1]; Protein SH2D3A, ref Jones et al. 2006 / Kaushansky et al. Chem and Biol 2008)?
**A.** The Kd was 1280 nM.

**Q.** What about the Kd ([1]; Protein SH2D3C, ref Jones et al. 2006 / Kaushansky et al. Chem and Biol 2008) of the same substance?
**A.** Its Kd is 160 nM.

**Q.** What about the Kd ([1]; Protein SHB, ref Jones et al. 2006 / Kaushansky et al. Chem and Biol 2008) of the same substance?
**A.** The Kd was 210 nM.

**Q.** What about the Kd ([1]; Protein SHC1-PTB, ref Jones et al. 2006 / Kaushansky et al. Chem and Biol 2008) of the same substance?
**A.** Its Kd is 340 nM.

**Q.** And the Kd ([1]; Protein SHC2-PTB, ref Jones et al. 2006 / Kaushansky et al. Chem and Biol 2008)?
**A.** The Kd was 430 nM.

**Q.** And the Kd ([1]; Protein SHF, ref Jones et al. 2006 / Kaushansky et al. Chem and Biol 2008)?
**A.** The Kd was 340 nM.

**Q.** And the Kd ([1]; Protein SLA2, ref Jones et al. 2006 / Kaushansky et al. Chem and Biol 2008)?
**A.** The Kd was 1440 nM.

**Q.** And the Kd ([1]; Protein SRC, ref Jones et al. 2006 / Kaushansky et al. Chem and Biol 2008)?
**A.** The Kd was 35 nM.

**Q.** And the Kd ([1]; Protein SUPT6H, ref Jones et al. 2006 / Kaushansky et al. Chem and Biol 2008)?
**A.** The Kd was 1570 nM.

**Q.** What about the Kd ([1]; Protein SYK-C, ref Jones et al. 2006 / Kaushansky et al. Chem and Biol 2008) of the same substance?
**A.** The Kd was 540 nM.

**Q.** And the Kd ([1]; Protein SYK-N, ref Jones et al. 2006 / Kaushansky et al. Chem and Biol 2008)?
**A.** Its Kd is 260 nM.

**Q.** And the Kd ([1]; Protein SYK-NC, ref Jones et al. 2006 / Kaushansky et al. Chem and Biol 2008)?
**A.** Its Kd is 300 nM.

**Q.** And the Kd ([1]; Protein TEC, ref Jones et al. 2006 / Kaushansky et al. Chem and Biol 2008)?
**A.** The Kd was 770 nM.

**Q.** What about the Kd ([1]; Protein TXK, ref Jones et al. 2006 / Kaushansky et al. Chem and Biol 2008) of the same substance?
**A.** The Kd was 1230 nM.

**Q.** What about the Kd ([1]; Protein VAV2, ref Jones et al. 2006 / Kaushansky et al. Chem and Biol 2008) of the same substance?
**A.** Its Kd is 1750 nM.

**Q.** What about the Kd ([1]; Protein VAV3, ref Jones et al. 2006 / Kaushansky et al. Chem and Biol 2008) of the same substance?
**A.** Its Kd is 1130 nM.

**Q.** And the Kd ([1]; Protein YES1, ref Jones et al. 2006 / Kaushansky et al. Chem and Biol 2008)?
**A.** The Kd was 45 nM.

**Q.** What about the Kd ([1]; Protein ZAP70-NC, ref Jones et al. 2006 / Kaushansky et al. Chem and Biol 2008) of the same substance?
**A.** The Kd was 1440 nM.

**Q.** And the Kd ([2]; ref Jones et al. 2006 / Kaushansky et al. Chem and Biol 2008)?
**A.** Its Kd is 530 nM.

**Q.** With DDTFLPVPEpYINQSVPKd [ErbB1 1092] as the substance, how does the Kd ([1]; Protein ABL1, ref Jones et al. 2006 / Kaushansky et al. Mol Biosys 2008 / Kaushansky et al. Chem and Biol 2008) read?
**A.** The Kd was 920 nM.

**Q.** What about the Kd ([1]; Protein ABL2, ref Jones et al. 2006 / Kaushansky et al. Mol Biosys 2008 / Kaushansky et al. Chem and Biol 2008) of the same substance?
**A.** The Kd was 150 nM.

**Q.** And the Kd ([1]; Protein BLK, ref Jones et al. 2006 / Kaushansky et al. Mol Biosys 2008 / Kaushansky et al. Chem and Biol 2008)?
**A.** The Kd was 300 nM.

**Q.** What about the Kd ([1]; Protein GRB2, ref Jones et al. 2006 / Kaushansky et al. Mol Biosys 2008 / Kaushansky et al. Chem and Biol 2008) of the same substance?
**A.** The Kd was 200 nM.

**Q.** What about the Kd ([1]; Protein GRB10, ref Jones et al. 2006 / Kaushansky et al. Mol Biosys 2008 / Kaushansky et al. Chem and Biol 2008) of the same substance?
**A.** Its Kd is 1300 nM.

**Q.** What about the Kd ([1]; Protein ITK, ref Jones et al. 2006 / Kaushansky et al. Mol Biosys 2008 / Kaushansky et al. Chem and Biol 2008) of the same substance?
**A.** Its Kd is 220 nM.

**Q.** And the Kd ([1]; Protein NCK2, ref Jones et al. 2006 / Kaushansky et al. Mol Biosys 2008 / Kaushansky et al. Chem and Biol 2008)?
**A.** The Kd was 1100 nM.

**Q.** What about the Kd ([1]; Protein PIK3R1-N, ref Jones et al. 2006 / Kaushansky et al. Mol Biosys 2008 / Kaushansky et al. Chem and Biol 2008) of the same substance?
**A.** Its Kd is 1080 nM.

**Q.** And the Kd ([1]; Protein PIK3R1-NC, ref Jones et al. 2006 / Kaushansky et al. Mol Biosys 2008 / Kaushansky et al. Chem and Biol 2008)?
**A.** The Kd was 670 nM.

**Q.** What about the Kd ([1]; Protein PIK3R2-N, ref Jones et al. 2006 / Kaushansky et al. Mol Biosys 2008 / Kaushansky et al. Chem and Biol 2008) of the same substance?
**A.** Its Kd is 450 nM.

**Q.** And the Kd ([1]; Protein PIK3R2-NC, ref Jones et al. 2006 / Kaushansky et al. Mol Biosys 2008 / Kaushansky et al. Chem and Biol 2008)?
**A.** The Kd was 1410 nM.

**Q.** And the Kd ([1]; Protein PIK3R3-N, ref Jones et al. 2006 / Kaushansky et al. Mol Biosys 2008 / Kaushansky et al. Chem and Biol 2008)?
**A.** The Kd was 510 nM.

**Q.** What about the Kd ([1]; Protein PIK3R3-NC, ref Jones et al. 2006 / Kaushansky et al. Mol Biosys 2008 / Kaushansky et al. Chem and Biol 2008) of the same substance?
**A.** The Kd was 1020 nM.

**Q.** What about the Kd ([1]; Protein PLCG2-NC, ref Jones et al. 2006 / Kaushansky et al. Mol Biosys 2008 / Kaushansky et al. Chem and Biol 2008) of the same substance?
**A.** The Kd was 1630 nM.

**Q.** What about the Kd ([1]; Protein RASA1-N, ref Jones et al. 2006 / Kaushansky et al. Mol Biosys 2008 / Kaushansky et al. Chem and Biol 2008) of the same substance?
**A.** The Kd was 180 nM.

**Q.** And the Kd ([1]; Protein SRC, ref Jones et al. 2006 / Kaushansky et al. Mol Biosys 2008 / Kaushansky et al. Chem and Biol 2008)?
**A.** The Kd was 1790 nM.

**Q.** And the Kd ([1]; Protein SYK-C, ref Jones et al. 2006 / Kaushansky et al. Mol Biosys 2008 / Kaushansky et al. Chem and Biol 2008)?
**A.** Its Kd is 1920 nM.

**Q.** And the Kd ([1]; Protein SYK-NC, ref Jones et al. 2006 / Kaushansky et al. Mol Biosys 2008 / Kaushansky et al. Chem and Biol 2008)?
**A.** Its Kd is 910 nM.

**Q.** What about the Kd ([1]; Protein VAV2, ref Jones et al. 2006 / Kaushansky et al. Mol Biosys 2008 / Kaushansky et al. Chem and Biol 2008) of the same substance?
**A.** The Kd was 540 nM.

**Q.** And the Kd ([1]; Protein YES1, ref Jones et al. 2006 / Kaushansky et al. Mol Biosys 2008 / Kaushansky et al. Chem and Biol 2008)?
**A.** Its Kd is 340 nM.

**Q.** And the Kd ([2]; ref Jones et al. 2006 / Kaushansky et al. Mol Biosys 2008 / Kaushansky et al. Chem and Biol 2008)?
**A.** The Kd was 1990 nM.
